In US20110214196A1, “DEVELOPMENT OF HERBICIDE-RESISTANT GRASS SPECIES” (University of Georgia Research Foundation, priority 2008, published 2011):

Key:
[1] = tested on: bermudagrass; test: Controlling weedy species in a plot of bermudagrass and sethoxydim-resistant seashore paspalum; format: in vivo
Method: (§1) A plot containing both bermudagrass and sethoxydim-resistant seashore paspalum is treated with 150 g a.i. ha^−1 sethoxydim once a week over a period of three months. Over the three month treatment period, it is observed that the bermudagrass slowly dies out while the sethoxydim-resistant paspalum continues to thrive, leaving the plot populated with above 80% sethoxydim-resistant paspalum.
as §1, with “treated with both 150 g” for “treated with 150 g”, “ha^−1 sethoxydim and 150 g a.i. ha^−1 fenoxaprop once a” for “ha^−1 sethoxydim once a”

[2] = tested on: Mauna Kea line regenerated from tissue culture (TC); test: Whole plant greenhouse dose-response, Segment herbicide (Example 8); format: in vivo, seashore paspalum (Paspalum vaginatum)
Method: (§2) Sethoxydim-resistant plants regenerated from a sethoxydim-resistant cell line, Line A, were tested for resistance at the whole plant level in a dose-response experiment conducted in a greenhouse. In this experiment, Line A was compared to two herbicide-susceptible controls; the original parent line, Mauna Kea (PT); and a Mauna Kea line regenerated from tissue culture (TTC). Plants were transplanted to Cone-tainers™ measuring 4×14 cm and tapering to 1 cm (Stuewe and Sons Inc., Corvallis, Oreg.) containing a 1:1 mix of Fafard® 3B mix and sand and placed on benches under sodium lights in a greenhouse with a 16 hour photoperiod maintained at 27/32° C. day/night for two weeks prior to treatment applications. Each of the three genotypes, Line A, PT and TC were treated with 0, 50, 100, 200, 400, 800, 1600, and 3200 g ai ha^−1 rates of sethoxydim using Segment™ herbicide (BASF Corp., Florham Park, N.J.). All herbicide rates were applied at a spray volume of 1871 ha^−1 in an experimental spray chamber, and after drying, returned to the greenhouse bench and maintained under the conditions described above. Visual estimates of crop injury were recorded at 7, 14, 21, and 28 days after treatment (DAT) using a scale of 0 to 100, where 0 equals no injury and 100 equals complete death. At 42 days after treatment, the above ground portion of all plants was harvested, dried for 48 hours at a temperature of 50° C., and weighed to determine plant dry weight. Treatments were arranged in a randomized complete block design. Only two replications of TCC were possible due to limited plant materials; otherwise four replications were used for the other two genotypes (PT and Line A). Data were first analyzed using a two-way analysis of variance and subsequently analyzed within herbicide rate. Differences among genotype means at each herbicide rate were determined using Fisher's Least Significant Difference (LSD).

[3] = tested on: original parent line, Mauna Kea (PT); test: as above; format: in vivo, seashore paspalum (Paspalum vaginatum)
Method: as §2

[4] = at rates equal to or greater than 800 g ai ha^−1
[5] = at rates of 200 g ai ha^−1, scale of 0 to 100

CCC/C(=N\OCC)C1=C(O)CC(CC(C)SCC)CC1=O (stereo not drawn) [sethoxydim, 2-[1-(ethoxyimino)-butyl]-5-[2-(ethylthio)propyl]-3-hydroxy-2-cylohexen-1-one]
plot populated with sethoxydim-resistant paspalum; bermudagrass slowly dies out ([1]; 150 g a.i. ha^−1 sethoxydim and 150 g a.i. ha^−1 fenoxaprop once a week over three months): above 80% | plot populated with sethoxydim-resistant paspalum; bermudagrass slowly dies out ([1]; 150 g a.i. ha^−1 sethoxydim once a week over three months): above 80% | LD50 [2]: 276 g ai ha^1 | Plant Injury ([2]; 50 g a.i. ha^−1, 7 DAT): 4.5a % | Plant Injury ([2]; 50 g a.i. ha^−1, 14 DAT): 12.5ab % | Plant Injury ([2]; 50 g a.i. ha^−1, 21 DAT): 2.5a % | Plant Injury ([2]; 50 g a.i. ha^−1, 28 DAT): 0.0a % | Dry Weight ([2]; 50 g a.i. ha^−1, 42 DAT): 2.2a grams | Plant Injury ([2]; 100 g a.i. ha^−1, 7 DAT): 18.3b % | Plant Injury ([2]; 100 g a.i. ha^−1, 14 DAT): 25.0b % | Plant Injury ([2]; 100 g a.i. ha^−1, 21 DAT): 20.0a % | Plant Injury ([2]; 100 g a.i. ha^−1, 28 DAT): 7.5a % | Dry Weight ([2]; 100 g a.i. ha^−1, 42 DAT): 1.6ab grams | Plant Injury ([2]; 200 g a.i. ha^−1, 7 DAT): 16.7b % | Plant Injury ([2]; 200 g a.i. ha^−1, 14 DAT): 30.0b % | Plant Injury ([2]; 200 g a.i. ha^−1, 21 DAT): 40.0b % | Plant Injury ([2]; 200 g a.i. ha^−1, 28 DAT): 32.5b % | Dry Weight ([2]; 200 g a.i. ha^−1, 42 DAT): 0.4b grams | Plant Injury ([2]; 400 g a.i. ha^−1, 7 DAT): 30.8b % | Plant Injury ([2]; 400 g a.i. ha^−1, 14 DAT): 82.5b % | Plant Injury ([2]; 400 g a.i. ha^−1, 21 DAT): 80.0b % | Plant Injury ([2]; 400 g a.i. ha^−1, 28 DAT): 82.5b % | Dry Weight ([2]; 400 g a.i. ha^−1, 42 DAT): 0.1b grams | Plant Injury ([2]; 800 g a.i. ha^−1, 7 DAT): 60.0c % | Plant Injury ([2]; 800 g a.i. ha^−1, 14 DAT): 87.5b % | Plant Injury ([2]; 800 g a.i. ha^−1, 21 DAT): 95.0b % | Plant Injury ([2]; 800 g a.i. ha^−1, 28 DAT): 100.0c % | Dry Weight ([2]; 800 g a.i. ha^−1, 42 DAT): 0.1b grams | Plant Injury ([2]; 1600 g a.i. ha^−1, 7 DAT): 43.3b % | Plant Injury ([2]; 1600 g a.i. ha^−1, 14 DAT): 100.0c % | Plant Injury ([2]; 1600 g a.i. ha^−1, 21 DAT): 100.0c % | Plant Injury ([2]; 1600 g a.i. ha^−1, 28 DAT): 100.0b % | Dry Weight ([2]; 1600 g a.i. ha^−1, 42 DAT): 0.1b grams | Plant Injury ([2]; 3200 g a.i. ha^−1, 7 DAT): 46.7b % | Plant Injury ([2]; 3200 g a.i. ha^−1, 14 DAT): 100.0b % | Plant Injury ([2]; 3200 g a.i. ha^−1, 21 DAT): 100.0b % | Plant Injury ([2]; 3200 g a.i. ha^−1, 28 DAT): 100.0b % | Dry Weight ([2]; 3200 g a.i. ha^−1, 42 DAT): 0.1b grams | injury score [2, 4]: ≥ 80% | injury score [2, 5]: ≥ 30 | LD50 [3]: 189 g ai ha^1 | Plant Injury ([3]; 50 g a.i. ha^−1, 7 DAT): 5.2a % | Plant Injury ([3]; 50 g a.i. ha^−1, 14 DAT): 6.2b % | Plant Injury ([3]; 50 g a.i. ha^−1, 21 DAT): 5.0a % | Plant Injury ([3]; 50 g a.i. ha^−1, 28 DAT): 1.2a % | Dry Weight ([3]; 50 g a.i. ha^−1, 42 DAT): 1.6a grams | Plant Injury ([3]; 100 g a.i. ha^−1, 7 DAT): 7.9b % | Plant Injury ([3]; 100 g a.i. ha^−1, 14 DAT): 22.5b % | Plant Injury ([3]; 100 g a.i. ha^−1, 21 DAT): 13.8a % | Plant Injury ([3]; 100 g a.i. ha^−1, 28 DAT): 6.2a % | Dry Weight ([3]; 100 g a.i. ha^−1, 42 DAT): 1.3b grams | Plant Injury ([3]; 200 g a.i. ha^−1, 7 DAT): 20.8b % | Plant Injury ([3]; 200 g a.i. ha^−1, 14 DAT): 55.0b % | Plant Injury ([3]; 200 g a.i. ha^−1, 21 DAT): 52.5b % | Plant Injury ([3]; 200 g a.i. ha^−1, 28 DAT): 43.8b % | Dry Weight ([3]; 200 g a.i. ha^−1, 42 DAT): 0.8b grams | Plant Injury ([3]; 400 g a.i. ha^−1, 7 DAT): 30.8b % | Plant Injury ([3]; 400 g a.i. ha^−1, 14 DAT): 67.5b % | Plant Injury ([3]; 400 g a.i. ha^−1, 21 DAT): 67.5b % | Plant Injury ([3]; 400 g a.i. ha^−1, 28 DAT): 72.5b % | Dry Weight ([3]; 400 g a.i. ha^−1, 42 DAT): 0.2b grams | Plant Injury ([3]; 800 g a.i. ha^−1, 7 DAT): 35.0b % | Plant Injury ([3]; 800 g a.i. ha^−1, 14 DAT): 85.0b % | Plant Injury ([3]; 800 g a.i. ha^−1, 21 DAT): 85.0b % | Plant Injury ([3]; 800 g a.i. ha^−1, 28 DAT): 88.8b % | Dry Weight ([3]; 800 g a.i. ha^−1, 42 DAT): 0.3b grams | Plant Injury ([3]; 1600 g a.i. ha^−1, 7 DAT): 40.8b % | Plant Injury ([3]; 1600 g a.i. ha^−1, 14 DAT): 90.0b % | Plant Injury ([3]; 1600 g a.i. ha^−1, 21 DAT): 92.5b % | Plant Injury ([3]; 1600 g a.i. ha^−1, 28 DAT): 92.5b % | Dry Weight ([3]; 1600 g a.i. ha^−1, 42 DAT): 0.2b grams | Plant Injury ([3]; 3200 g a.i. ha^−1, 7 DAT): 37.9b % | Plant Injury ([3]; 3200 g a.i. ha^−1, 14 DAT): 100.0b % | Plant Injury ([3]; 3200 g a.i. ha^−1, 21 DAT): 100.0b % | Plant Injury ([3]; 3200 g a.i. ha^−1, 28 DAT): 100.0b % | Dry Weight ([3]; 3200 g a.i. ha^−1, 42 DAT): 0.1b grams | injury score [3, 4]: ≥ 80% | injury score [3, 5]: ≥ 30
